Legend:
[1] = test system: HES3 NKX2.1-GFP hESC line with i12b-RFP; test: Flow cytometry of NKX2.1-GFP and i12b-RFP double positive cells; format: cell-based, human; settings: B27+5F cultures treated with DAPT
Excerpt: The intergenic DLX½i12b (422) enhancer driving the mCherry RFP reporter gene (i12b-RFP) was delivered into the HES3 NKX2.1-GFP hESC line using lentivirus, and two stable cell lines were generated (#5 and #10) as confirmed by genomic DNA PCR for mCherry. (FIG. 22, F).
The modified lines were differentiated using the B27±5F method, and i12b-RFP expression was detected after three weeks of differentiation, along with NKX2.1. (FIG. 22, G). i12b-RFP+ cells in EBs co-expressed GABAergic neuron marker DLX2 and neuronal marker TUJ1. (FIGS. 22, H and I).
Flow cytometry analysis confirmed that many cells derived with the B27+5F method co-expressed both NKX2.1-GFP and i12b-RFP (FIG. 22, J).

SCID mouse cortex = test: Tumor incidence after injection of hESC-derived NKX2.1-GFP+ cells into newborn SCID mouse cortex; format: in vivo
Procedure: Excess medium was removed from sorted cell pellets to create concentrated cell suspensions of 1000 cells/nl. Cells were loaded into a beveled glass micropipette (Wiretrol 5 ul, Drummond Scientific Company) mounted on a stereotactic hydraulic injector. P2 CB.17-SCID pups (Charles River) were anesthetized through hypothermia and positioned in a clay head mold on the injector platform. 10-100,000 cells per injection site were delivered transcranially into the right cerebral cortex using the following coordinates: 0.9 mm from the midline (sagittal sinus), and 2.6 mm from lambda. The depth of injection was 0.45 mm from the skin surface. All transplantation experiments adhered to approved UCSF Institutional Animal Care and Use Committee protocols.
Initially, day 35 monolayer cultures were sorted for NKX2.1-GFP+, without PSANCAM selection, and injected into newborn SCID mouse cortex. However, within 4 months, injected mouse brains (12/12 mice) contained tumor-like overgrowths at the injection site and/or at the pial surface near the injection tract (data not shown). These were not pluripotent cell-derived teratomas; OCT4+ cells or polarized neuroepithelial rosettes were not found. […] But, focal growths (˜1 focus/2500 plated cells, n=3) were occasionally detected in extended co-cultures, consistent with tumor formation in vivo. […]

SMILES: C[C@H](NC(=O)Cc1cc(F)cc(F)c1)C(=O)N[C@H](C(=O)OC(C)(C)C)c1ccccc1 [DAPT]
- double positive (NKX2.1-GFP and i12b-RFP) population of MGE derived interneurons [1]: marked increase
- tumor incidence (SCID mouse cortex; brief addition of DAPT prior to injection, low-density monolayer culture, 3/9 mice): 33%
- in vivo tumor incidence (SCID mouse cortex; day 35 cultures pretreated with DAPT and FACS-sorted for both NKX2.1-GFP+ and PSA-NCAM+ cells): 0/6
